The values below come from patent US12595253B2, “Benzamides of pyrazolylamino-pyrimidinyl derivatives, and compositions and methods thereof” (LYNK PHARMACEUTICALS CO. LTD., priority 2019, dated 2026).

Common to all, as to type: biochemical
In assay [1] the target is T1, JAK2 (Homo sapiens, UniProt O60674).
T1 construct: purchased Carna Biosciences
Description: JAK2 microfluidic kinase assay (Caliper EZ Reader II, FAM labeled peptide substrate). Particulars: IC50 JAK2 ([…]) (1 mM ATP), 1 mM ATP. The method in brief: (§1)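 Compounds, serially diluted 3-fold from 5 μM, were preincubated 10 min with enzyme at ambient temperature before reaction in HEPES/Brij35/MgCl2/DTT buffer (1% DMSO final), tuned to 10% peptide conversion. After EDTA stop, FAM-peptide phosphorylation was measured by Caliper EZ Reader II; IC50 fitted from percent-inhibition curves.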

Assay [2] has as its target T2, TYK2 (Homo sapiens, UniProt P29597).
T2 construct: purchased Carna Biosciences
Description: TYK2 microfluidic kinase assay (Caliper EZ Reader II, FAM labeled peptide substrate). To be noted: IC50 TYK2 ([…]) (1 mM ATP), TYK2 […], 1 mM ATP. The procedure: Compounds were tested against JAK1, JAK2, JAK2V617F and TYK2. Assay Formats: JAK activity was determined in the reaction buffer 50 mM HEPES, 0.01% Brij35, 10 mM MgCl2, 2 mM DTT by a microfluidic assay. The phosphorylation of a FAM labeled peptide substrate was monitored in the Caliper EZ Reader II (Perkin Elmer). The assay condition for each batch of enzyme (Carna Biosciences) was optimized to obtain 10% conversion rate of peptide substrate. The test compounds were dissolved in DMSO to a stock concentration of 10 mM. 3-fold serially diluted compounds with top concentration of 5 μM were pre-incubated with JAK1, JAK2, JAK2V617F or TYK2 at indicated concentrations for 10 min at ambient temperature. The final DMSO concentration of assay mixture was 1%. […] The reaction was stopped by adding 50 mM EDTA. The reaction time for JAK1, JAK2, JAK2V617F and TYK2 was 120 min, 20 min, 30 min and 10 min, respectively. […] And the well without compound but with equivalent DMSO was defined as no inhibition. The percent inhibition was calculated by the following formula. % Inhibition=(Conversionmax−Conversionsample)/(Conversionmax−Conversionmin)*100 • Conversionmax means the conversion rate in the positive well without addition of compound • Conversionmin means the conversion rate in the well without addition of enzyme • Conversionsample means the conversion rate of test compounds The dose-response (percent inhibition) curve was plotted and IC50 values were determined by GraphPad software.

The target in assay [3] is T3, JAK1 (Homo sapiens, UniProt P23458).
T3 construct: purchased Carna Biosciences
T3 sequence (P23458 whole entry): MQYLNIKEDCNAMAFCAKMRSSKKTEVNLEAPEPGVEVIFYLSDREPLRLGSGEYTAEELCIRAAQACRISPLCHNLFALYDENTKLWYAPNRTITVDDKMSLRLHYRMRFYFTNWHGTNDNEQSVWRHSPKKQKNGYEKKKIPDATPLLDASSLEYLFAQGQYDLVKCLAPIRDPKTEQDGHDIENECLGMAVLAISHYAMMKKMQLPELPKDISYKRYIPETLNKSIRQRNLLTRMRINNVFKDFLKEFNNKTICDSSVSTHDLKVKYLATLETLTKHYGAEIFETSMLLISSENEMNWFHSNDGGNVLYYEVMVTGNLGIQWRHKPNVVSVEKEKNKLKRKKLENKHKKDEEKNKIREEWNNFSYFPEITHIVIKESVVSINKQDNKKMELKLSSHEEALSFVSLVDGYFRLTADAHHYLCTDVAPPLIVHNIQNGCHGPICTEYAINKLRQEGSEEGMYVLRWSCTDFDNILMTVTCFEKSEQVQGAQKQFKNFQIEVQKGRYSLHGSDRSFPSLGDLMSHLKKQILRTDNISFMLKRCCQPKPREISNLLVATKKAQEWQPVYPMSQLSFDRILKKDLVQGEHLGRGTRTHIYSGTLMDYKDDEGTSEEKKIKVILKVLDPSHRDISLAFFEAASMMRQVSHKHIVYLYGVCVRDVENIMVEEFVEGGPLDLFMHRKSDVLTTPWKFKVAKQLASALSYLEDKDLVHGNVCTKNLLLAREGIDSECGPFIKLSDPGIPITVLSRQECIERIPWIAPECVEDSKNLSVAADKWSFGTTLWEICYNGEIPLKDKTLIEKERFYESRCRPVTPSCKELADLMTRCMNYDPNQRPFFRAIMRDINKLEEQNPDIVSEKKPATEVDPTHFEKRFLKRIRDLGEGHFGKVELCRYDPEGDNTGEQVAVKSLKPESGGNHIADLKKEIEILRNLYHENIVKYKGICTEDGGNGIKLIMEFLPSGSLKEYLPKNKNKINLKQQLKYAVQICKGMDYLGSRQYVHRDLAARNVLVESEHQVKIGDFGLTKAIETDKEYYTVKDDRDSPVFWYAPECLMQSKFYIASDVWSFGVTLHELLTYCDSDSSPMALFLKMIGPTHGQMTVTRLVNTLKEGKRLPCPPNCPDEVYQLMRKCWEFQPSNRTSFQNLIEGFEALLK
Kind of assay: JAK1 microfluidic kinase assay (Caliper EZ Reader II, FAM labeled peptide substrate). Particulars: IC50 JAK1 (5 nM) (1 m MATP), JAK1 5 nM, 1 mM ATP. In outline: as §1

Assay [4] deals with T4, JAK2V617F (Homo sapiens, UniProt O60674, V617F).
T4 construct: purchased Carna Biosciences
T4 sequence (O60674 whole entry V617F): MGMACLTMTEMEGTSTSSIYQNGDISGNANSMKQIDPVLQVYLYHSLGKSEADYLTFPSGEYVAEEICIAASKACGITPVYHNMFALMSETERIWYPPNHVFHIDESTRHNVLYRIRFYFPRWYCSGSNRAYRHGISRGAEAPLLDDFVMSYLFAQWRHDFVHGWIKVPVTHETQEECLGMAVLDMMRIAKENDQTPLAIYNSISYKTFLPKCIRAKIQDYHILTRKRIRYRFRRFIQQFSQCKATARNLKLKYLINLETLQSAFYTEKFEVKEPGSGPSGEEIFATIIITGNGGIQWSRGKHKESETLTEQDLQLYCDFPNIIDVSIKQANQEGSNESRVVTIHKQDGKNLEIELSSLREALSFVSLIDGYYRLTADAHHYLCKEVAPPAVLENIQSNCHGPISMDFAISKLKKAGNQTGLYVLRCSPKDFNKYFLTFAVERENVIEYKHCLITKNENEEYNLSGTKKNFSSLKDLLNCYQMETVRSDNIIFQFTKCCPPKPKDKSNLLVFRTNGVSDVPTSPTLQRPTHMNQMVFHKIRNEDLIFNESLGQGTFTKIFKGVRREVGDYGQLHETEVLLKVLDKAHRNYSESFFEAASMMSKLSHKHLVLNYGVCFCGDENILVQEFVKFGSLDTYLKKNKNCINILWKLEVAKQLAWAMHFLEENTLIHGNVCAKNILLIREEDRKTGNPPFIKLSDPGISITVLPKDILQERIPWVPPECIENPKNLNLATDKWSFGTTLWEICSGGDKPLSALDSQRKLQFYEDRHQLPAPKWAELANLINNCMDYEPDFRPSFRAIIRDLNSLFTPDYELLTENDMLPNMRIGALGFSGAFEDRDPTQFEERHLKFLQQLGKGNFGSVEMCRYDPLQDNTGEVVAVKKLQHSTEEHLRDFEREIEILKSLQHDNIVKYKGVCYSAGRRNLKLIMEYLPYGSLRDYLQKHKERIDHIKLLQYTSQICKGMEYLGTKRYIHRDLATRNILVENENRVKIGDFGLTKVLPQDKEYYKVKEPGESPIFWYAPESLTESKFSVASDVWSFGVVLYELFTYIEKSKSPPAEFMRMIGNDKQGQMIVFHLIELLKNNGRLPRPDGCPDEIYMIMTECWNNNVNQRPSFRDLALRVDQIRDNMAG
Description: JAK2V617F microfluidic kinase assay (Caliper EZ Reader II, FAM labeled peptide substrate). Particulars: JAK2V617F 2.5 nM, 1 mM ATP. In outline: as §1

T1 sequence (O60674 whole entry): as the sequence (O60674 whole entry V617F) above, with F617V counted along it
T2 sequence (P29597 whole entry): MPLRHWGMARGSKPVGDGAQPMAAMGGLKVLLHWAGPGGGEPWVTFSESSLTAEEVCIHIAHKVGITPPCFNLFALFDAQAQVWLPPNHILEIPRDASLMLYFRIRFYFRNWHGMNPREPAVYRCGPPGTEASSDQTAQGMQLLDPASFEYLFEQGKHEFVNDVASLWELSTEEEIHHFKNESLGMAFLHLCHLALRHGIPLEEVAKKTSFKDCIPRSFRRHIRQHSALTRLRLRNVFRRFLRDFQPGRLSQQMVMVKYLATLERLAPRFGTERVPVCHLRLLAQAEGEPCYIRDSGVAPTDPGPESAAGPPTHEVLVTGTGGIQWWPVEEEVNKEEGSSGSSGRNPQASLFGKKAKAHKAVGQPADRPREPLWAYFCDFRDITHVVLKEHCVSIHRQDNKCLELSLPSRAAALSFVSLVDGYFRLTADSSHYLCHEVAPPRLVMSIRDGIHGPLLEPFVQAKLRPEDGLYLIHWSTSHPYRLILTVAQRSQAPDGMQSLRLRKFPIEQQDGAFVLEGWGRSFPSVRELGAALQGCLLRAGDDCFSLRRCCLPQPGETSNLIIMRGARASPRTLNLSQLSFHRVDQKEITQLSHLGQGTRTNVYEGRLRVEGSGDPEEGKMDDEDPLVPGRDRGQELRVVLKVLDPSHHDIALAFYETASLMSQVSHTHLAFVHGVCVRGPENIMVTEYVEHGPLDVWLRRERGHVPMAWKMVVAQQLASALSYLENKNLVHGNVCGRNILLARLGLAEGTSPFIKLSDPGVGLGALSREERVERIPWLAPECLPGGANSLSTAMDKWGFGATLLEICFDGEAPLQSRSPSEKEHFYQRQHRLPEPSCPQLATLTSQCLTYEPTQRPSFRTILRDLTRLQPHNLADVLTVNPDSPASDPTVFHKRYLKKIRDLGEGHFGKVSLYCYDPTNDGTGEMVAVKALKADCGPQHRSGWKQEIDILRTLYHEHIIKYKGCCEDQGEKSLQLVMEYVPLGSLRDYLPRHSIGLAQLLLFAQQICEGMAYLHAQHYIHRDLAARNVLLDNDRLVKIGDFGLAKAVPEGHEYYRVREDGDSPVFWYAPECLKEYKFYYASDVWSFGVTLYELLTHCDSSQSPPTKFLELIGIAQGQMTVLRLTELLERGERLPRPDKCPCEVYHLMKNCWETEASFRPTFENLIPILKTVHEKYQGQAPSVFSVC

As a reminder, the IC50 is the concentration at which inhibition is half-maximal. For the molecule `Cc1cnc(Nc2cnn(C3CCN(C)CC3)c2)nc1-c1ccc(C(=O)NCC#N)cc1` [Example 49, N-(cyanomethyl)-4-(5-methyl-2-((1-(1-methylpiperidin-4-yl)-1H-pyrazol-4-yl)amino)pyrimidin-4-yl)benzamide], the IC50 in assay [1] turned out to be 0.81 nM; in assay [2] it was 38.2 nM; in assay [3], 7.13 nM; in assay [4] it was 57.2 nM.
The matching figures for `C[C@@H](C#N)NC(=O)c1ccc(-c2nc(Nc3cnn(CC#N)c3)ncc2Cl)cc1` [Example 46, (S)-4-(5-Chloro-2-((1-(cyanomethyl)-1H-pyrazol-4-yl)amino)pyrimidin-4-yl)-N-(1-cyanoethyl)benzamide]: 25.2 nM, 42.7 nM, 5.55 nM and 53.5 nM.
For the molecule `Cc1cnc(Nc2cnn(C3CC3)c2)nc1-c1ccc(C(=O)N[C@@H](C)C#N)cc1` [Example 94, (S)—N-(1-cyanoethyl)-4-(2-((1-cyclopropyl-1H-pyrazol-4-yl)amino)-5-methylpyrimidin-4-yl)benzamide], the half-inhibitory concentration (IC50) in assay [1] worked out at 10.6 nM; in assay [2], 31.4 nM; in assay [3] it was 5.17 nM; in assay [4] it was 33.3 nM.
The matching figures for `C[C@@H](C#N)NC(=O)c1ccc(-c2nc(Nc3cnn(CC#N)c3)ncc2F)cc1` [Example 53, (S)—N-(1-cyanoethyl)-4-(2-((1-(cyanomethyl)-1H-pyrazol-4-yl)amino)-5-fluoropyrimidin-4-yl)benzamide]: 293 nM, 198 nM, 69.7 nM and 658 nM.
As to `C[C@@H](C#N)NC(=O)c1ccc(-c2nc(Nc3cnn(CCO)c3)ncc2Cl)cc1` [Example 186, (S)-4-(5-chloro-2-((1-(2-hydroxyethyl)-1H-pyrazol-4-yl)amino)pyrimidin-4-yl)-N-(1-cyanoethyl)benzamide], the IC50 was 25.2 nM in assay [1], 39.7 nM in assay [2] and 2.47 nM in assay [3].
For `Cc1cnc(Nc2cnn(C3CCNCC3)c2)nc1-c1ccc(C(=O)N[C@H](C#N)C2CC2)cc1` [Example 156, (S)—N-(cyano(cyclopropyl)methyl)-4-(5-methyl-2-((1-(piperidin-4-yl)-1H-pyrazol-4-yl)amino)pyrimidin-4-yl)benzamide] the same measures were 0.79 nM, 3.15 nM and 2.93 nM.
For `Cc1cnc(Nc2cnn(C3CCN(CCO)CC3)c2)nc1-c1ccc(C(=O)N[C@@H](C)C#N)cc1` [Example 204, (S)—N-(1-cyanoethyl)-4-(2-((1-(1-(2-hydroxyethyl)piperidin-4-yl)-1H-pyrazol-4-yl)amino)-5-methylpyrimidin-4-yl)benzamide] the same measures were 0.91 nM, 33.3 nM and 1.88 nM.
As to `C[C@@H](C#N)NC(=O)c1ccc(-c2nc(Nc3cnn(CCC#N)c3)ncc2Cl)cc1` [Example 189, (S)-4-(5-Chloro-2-((1-(2-cyanoethyl)-1H-pyrazol-4-yl)amino)pyrimidin-4-yl)-N-(1-cyanoethyl)benzamide], the figures for the half-inhibitory concentration (IC50) in assay [1], in assay [2] and in assay [3] were 44 nM, 85 nM and 4.02 nM, respectively.
Regarding `Cc1cnc(Nc2cnn(C3CCN(C)C(=O)C3)c2)nc1-c1ccc(C(=O)NCC#N)cc1` (stereo not shown) [Example 66, N-(cyanomethyl)-4-(5-methyl-2-((1-(1-methyl-2-oxopiperidin-4-yl)-1H-pyrazol-4-yl)amino)pyrimidin-4-yl)benzamide], the IC50 in assay [2] worked out at 70 nM; in assay [3], 18.3 nM; in assay [4], 51.7 nM.
In the case of `Cc1cnc(Nc2cnn(CC#N)c2)nc1-c1ccc(C(=O)N[C@H](C)C#N)cc1` [Example 54, (R)—N-(1-cyanoethyl)-4-(2-((1-(cyanomethyl)-1H-pyrazol-4-yl)amino)-5-methylpyrimidin-4-yl)benzamide], the IC50 was determined as 210 nM in assay [1], 304 nM in assay [2] and 34.3 nM in assay [3].
On to `N#CCNC(=O)c1ccc(-c2nc(Nc3cnn(CC#N)c3)ncc2F)cc1` [Example 45, N-(cyanomethyl)-4-(2-((1-(cyanomethyl)-1H-pyrazol-4-yl)amino)-5-fluoropyrimidin-4-yl)benzamide], for which the IC50 in assay [1] is 256 nM; in assay [2], 251 nM; in assay [3] it was 59.6 nM.
The matching figures for `CC[C@@H](C#N)NC(=O)c1ccc(-c2nc(Nc3cnn(C(C)C(F)(F)F)c3)ncc2C)cc1` (single isomer, unassigned) [Example 226, N—((S)-1-Cyanopropyl)-4-(5-methyl-2-((1-((S*)-1,1,1-trifluoropropan-2-yl)-1H-pyrazol-4-yl)amino)pyrimidin-4-yl)benzamide]: 32.2 nM, 57.3 nM and 4.24 nM.
For `CC[C@@H](C#N)NC(=O)c1ccc(-c2nc(Nc3cnn(CCC#N)c3)ncc2C)cc1` [Example 217, (S)-4-(2-((1-(2-cyanoethyl)-1H-pyrazol-4-yl)amino)-5-methylpyrimidin-4-yl)-N-(1-cyanopropyl)benzamide] the same measures were 39.8 nM, 40.9 nM and 2.71 nM.
The matching figures for `Cc1cnc(Nc2cnn(C3CC3)c2)nc1-c1ccc(C(=O)N(C)CC#N)cc1` [Example 108, N-(cyanomethyl)-4-(2-((1-cyclopropyl-1H-pyrazol-4-yl)amino)-5-methylpyrimidin-4-yl)-N-methylbenzamide]: 461 nM, 1150 nM and 628 nM.
In the case of `CCC[C@@H](C#N)NC(=O)c1ccc(-c2nc(Nc3cnn(CCO)c3)ncc2C)cc1` [Example 192, (S)—N-(1-cyanobutyl)-4-(2-((1-(2-hydroxyethyl)-1H-pyrazol-4-yl)amino)-5-methylpyrimidin-4-yl)benzamide], the results for the IC50 in assay [1], in assay [2] and in assay [3] were 22.5 nM, 14.7 nM and 2.45 nM, respectively.
As to `CCC[C@@H](C#N)NC(=O)c1ccc(-c2nc(Nc3cnn(C4CCN(C)CC4)c3)ncc2C)cc1` [Example 176, (S)—N-(1-cyanobutyl)-4-(5-methyl-2-((1-(1-methylpiperidin-4-yl)-1H-pyrazol-4-yl)amino)pyrimidin-4-yl)benzamide], the figures for the IC50 in assay [1], in assay [2] and in assay [3] were 0.85 nM, 1.1 nM and 1.35 nM, respectively.
For `Cc1cnc(Nc2cnn(C3CCC(O)CC3)c2)nc1-c1ccc(C(=O)N[C@@H](C)C#N)cc1` (stereo partly drawn) [Example 209, (S)—N-(1-cyanoethyl)-4-(2-((1-(4-hydroxycyclohexyl)-1H-pyrazol-4-yl)amino)-5-methylpyrimidin-4-yl)benzamide], the IC50 in assay [1] is less than 0.25 nM; in assay [2] it was 9.11 nM; in assay [3] it was 14.3 nM.
For `N#CCNC(=O)c1ccc(-c2nc(Nc3cnn(CC#N)c3)ncc2Cl)cc1` [Example 41, 4-(5-Chloro-2-((1-(cyanomethyl)-1H-pyrazol-4-yl)amino)pyrimidin-4-yl)-N-(cyanomethyl)benzamide] the same measures were 31.8 nM, 71.2 nM and 6.45 nM.
For `CC[C@@H](C#N)NC(=O)c1ccc(-c2nc(Nc3cnn(C4CC(C)(C)OC(C)(C)C4)c3)ncc2C)cc1` [Example 179, (S)—N-(1-cyanopropyl)-4-(5-methyl-2-((1-(2,2,6,6-tetramethyltetrahydro-2H-pyran-4-yl)-1H-pyrazol-4-yl)amino)pyrimidin-4-yl)benzamide] the same measures were 0.43 nM, less than 0.25 nM and 6.03 nM.
The matching figures for `C[C@H](C#N)NC(=O)c1ccc(-c2nc(Nc3cnn(C4CCN(C)CC4)c3)ncc2Cl)cc1` [Example 58, (R)-4-(5-Chloro-2-((1-(1-methylpiperidin-4-yl)-1H-pyrazol-4-yl)amino)pyrimidin-4-yl)-N-(1-cyanoethyl)benzamide]: 42.2 nM, 272 nM and 34.8 nM.
Take `C[C@@H](C#N)NC(=O)c1ccc(-c2nc(Nc3cnn(C4CCN(C(=O)CO)CC4)c3)ncc2Cl)cc1` [Example 214, (S)-4-(5-chloro-2-((1-(1-(2-hydroxyacetyl)piperidin-4-yl)-1H-pyrazol-4-yl)amino)pyrimidin-4-yl)-N-(1-cyanoethyl)benzamide]: the half-inhibitory concentration (IC50) in assay [1] was less than 0.25 nM; in assay [2], 59.6 nM; in assay [3], 15.6 nM.
